Experimental data published in patent US11213031B2, “Tetrazolylpropyl derivatives and their use as fungicides” (BAYER AKTIENGESELLSCHAFT, priority 2017, dated 2022).

Assay: Log P by HPLC on reversed phase columns (EEC directive 79/831 Annex V.A8)
Assay type: physicochemical
Description: Measurement of Log P values was performed according to EEC directive 79/831 Annex V.A8 by HPLC (High Performance Liquid Chromatography) on reversed phase columns with the following methods: • ^[a]Log P value is determined by measurement of LC-UV, in an acidic range, with 0.1% formic acid in water and acetonitrile as eluent (linear gradient from 10% acetonitrile to 95% acetonitrile). • ^[b]Log P value is determined by measurement of LC-UV, in a neutral range, with 0.001 molar ammonium acetate solution in water and acetonitrile as eluent (linear gradient from 10% acetonitrile to 95% acetonitrile). • ^[c]Log P value is determined by measurement of LC-UV, in an acidic range, with 0.1% phosphoric acid and acetonitrile as eluent (linear gradient from 10% acetonitrile to 95% acetonitrile).
If more than one Log P value is available within the same method, all the values are given and separated by “+”.
Calibration was done with straight-chain alkan2-ones (with 3 to 16 carbon atoms) with known Log P values (measurement of Log P values using retention times with linear interpolation between successive alkanones). Lambda-max-values were determined using UV-spectra from 200 nm to 400 nm and the peak values of the chromatographic signals.

Structure (SMILES)	LogP	chromatographic logP (method [a]: LC-UV, acidic range, 0.1% formic acid in water and acetonitrile as eluent)
CC=C(c1ccccc1F)C(O)(Cn1cnnn1)C1(Cl)CC1 (racemic) [Ia-en-04]	2.66^[a]	
CC=C(c1cccc(Cl)c1F)C(O)(Cn1cnnn1)C1(Cl)CC1 (racemic) [Ia-en-05]	3.00^[a]	
CC=C(c1cccc(F)c1F)C(O)(Cn1cnnn1)C1(Cl)CC1 (racemic) [Ia-en-06]	2.82^[a]	
CC=C(c1cccc(F)c1F)C(O)(Cn1cnnn1)C1(Cl)CC1 (racemic) [Ia-en-07]	2.75^[a]	
CC(c1cc(F)ccc1F)C(O)(Cn1cnnn1)C1(Cl)CC1 (single isomer, unassigned) [Ia-16]	2.66^[a]	
CC(c1cc(F)ccc1F)C(O)(Cn1cnnn1)C1(Cl)CC1 (single isomer, unassigned) [Ia-18]	2.92^[a]	
OC(Cc1ccccc1C(F)(F)F)(Cn1cnnn1)C1(Cl)CC1 (centres unmarked) [Ia-07]	3.02^[a]	
CC1(C(O)(Cc2ccccc2Cl)Cn2cnnn2)CC1 (centres unmarked) [Ia-08]	2.80^[a]	
CC1(C(O)(Cc2ccccc2Br)Cn2cnnn2)CC1 (centres unmarked) [Ia-09]	2.92^[a]	
CC1(C(O)(Cc2ccccc2)Cn2cnnn2)CC1 (centres unmarked) [Ia-10]	2.35^[a]	
CC1(C(O)(Cc2ccccc2C(F)(F)F)Cn2cnnn2)CC1 (centres unmarked) [Ia-11]	2.94^[a]	
OC(Cc1c(F)cccc1F)(Cn1cnnn1)C1(Cl)CC1 (centres unmarked) [Ia-13]	2.52^[a]	
OC(Cc1ccccc1Br)(Cn1cnnn1)C1(F)CC1 (centres unmarked) [Ia-21]	2.49^[a]	
OC(Cc1cccc(Br)c1)(Cn1cnnn1)C1(F)CC1 (centres unmarked) [Ia-23]	2.59^[a]	
OC(Cc1ccccc1Br)(Cn1cnnn1)C1(Cl)CC1 (centres unmarked) [Ia-24]	2.88^[a]	
COc1ccc(CC(O)(Cn2cnnn2)C2(F)CC2)cc1 (centres unmarked) [Ia-27]	2.08^[a]	
Cc1cccc(CC(O)(Cn2cnnn2)C2(F)CC2)c1 (centres unmarked) [Ia-28]	2.42^[a]	
OC(Cc1cc(Cl)ccc1F)(Cn1cnnn1)C1(Cl)CC1 (centres unmarked) [Ia-29]	2.86^[a]	
OC(Cc1cc(F)cc(F)c1)(Cn1cnnn1)C1(Cl)CC1 (centres unmarked) [Ia-31]	2.63^[a]	
OC(Cc1ccccc1OC(F)(F)F)(Cn1cnnn1)C1(Cl)CC1 (centres unmarked) [Ia-32]	3.06^[a]	
COc1ccc(CC(O)(Cn2cnnn2)C2(C)CC2)cc1 (centres unmarked) [Ia-34]	2.35^[a]	

Structure (SMILES)	LogP	chromatographic logP (method [a]: LC-UV, acidic range, 0.1% formic acid in water and acetonitrile as eluent)
OC(Cc1c(F)cc(F)cc1F)(Cn1cnnn1)C1(Cl)CC1 (centres unmarked) [Ia-35]	2.64^[a]	
Cc1ccc(F)c(CC(O)(Cn2cnnn2)C2(Cl)CC2)c1F (centres unmarked) [Ia-36]	2.90^[a]	
COC(Cc1ccccc1Cl)(Cn1cnnn1)C1(Cl)CC1 (centres unmarked) [Ia-37]	3.19^[a]	
OC(Cc1ccc(F)c(Cl)c1F)(Cn1cnnn1)C1(Cl)CC1 (centres unmarked) [Ia-38]	2.94^[a]	
OC(Cc1ccc(F)cc1Cl)(Cn1cnnn1)C1(Cl)CC1 (centres unmarked) [Ia-39]	2.90^[a]	
OC(Cc1ccc(Cl)cc1F)(Cn1cnnn1)C1(Cl)CC1 (centres unmarked) [Ia-40]	2.90^[a]	
OC(Cc1cccc(Br)c1F)(Cn1cnnn1)C1(Cl)CC1 (centres unmarked) [Ia-41]	2.92^[a]	
OC(Cc1cc(F)cc(F)c1F)(Cn1cnnn1)C1(Cl)CC1 (centres unmarked) [Ia-43]	2.66^[a]	
Cc1ccc(F)c(CC(O)(Cn2cnnn2)C2(Cl)CC2)c1Cl (centres unmarked) [Ia-45]	3.23^[a]	
COc1ccc(F)c(CC(O)(Cn2cnnn2)C2(Cl)CC2)c1F (centres unmarked) [Ia-46]	2.51^[a]	
COc1cc(F)c(CC(O)(Cn2cnnn2)C2(Cl)CC2)c(F)c1 (centres unmarked) [Ia-49]	2.69^[a]	
OC(Cc1ccc(F)cc1F)(Cn1cnnn1)C1(Cl)CC1 (centres unmarked) [Ia-53]	2.57^[a]	
OC(Cc1c(F)ccc(F)c1F)(Cn1cnnn1)C1(Cl)CC1 (centres unmarked) [Ia-54]	2.60^[a]	
Cc1ccc(CC(O)(Cn2cnnn2)C2(Cl)CC2)c(F)c1F (centres unmarked) [Ia-55]	2.92^[a]	
OC(Cc1ccc(F)c(F)c1)(Cn1cnnn1)C1(Cl)CC1 (centres unmarked) [Ia-56]	2.64^[a]	
OC(Cc1cncc(F)c1)(Cn1cnnn1)C1(Cl)CC1 (centres unmarked) [Ia-59]	1.53^[a]	
COc1cccc(CC(O)(Cn2cnnn2)C2(Cl)CC2)c1 (centres unmarked) [Ia-60]	2.42^[a]	
CC1(C(O)(Cc2cccc(Br)c2)Cn2cnnn2)CC1 (centres unmarked) [Ia-63]	2.84^[a]	
Cc1cccc(CC(O)(Cn2cnnn2)C2(Cl)CC2)c1 (centres unmarked) [Ia-64]	2.78^[a]	
Cc1ccccc1CC(O)(Cn1cnnn1)C1(Cl)CC1 (centres unmarked) [Ia-66]	2.77^[a]	
OC(Cc1cccc(F)c1)(Cn1cnnn1)C1(Cl)CC1 (centres unmarked) [Ia-69]	2.54^[a]	

Structure (SMILES)	LogP	chromatographic logP (method [a]: LC-UV, acidic range, 0.1% formic acid in water and acetonitrile as eluent)
OC(Cc1c(F)cccc1Cl)(Cn1cnnn1)C1(Cl)CC1 (centres unmarked) [Ia-72]	2.90^[a]	
OC(Cc1ccncc1Cl)(Cn1cnnn1)C1(Cl)CC1 (centres unmarked) [Ia-73]	1.65^[a]	
OC(Cc1cncc(Cl)c1)(Cn1cnnn1)C1(Cl)CC1 (centres unmarked) [Ia-74]	1.86^[a]	
OC(Cc1ccccc1C(F)(F)F)(Cn1cnnn1)C1(F)CC1 (centres unmarked) [Ia-76]	2.71^[a]	
C=C(c1cc(F)ccc1F)C(O)(Cn1cnnn1)C1(Cl)CC1 (centres unmarked) [Ia-en-01]	2.54^[a]	
C=C(c1ccccc1)C(O)(Cn1cnnn1)C1(Cl)CC1 (centres unmarked) [Ia-en-03]	2.46^[a]	
C=C(c1cccc(F)c1F)C(O)(Cn1cnnn1)C1(Cl)CC1 (centres unmarked) [Ia-en-08]	2.57^[a]	
C=C(c1ccccc1Cl)C(O)(Cn1cnnn1)C1(Cl)CC1 (centres unmarked) [Ia-en-09]	2.71^[a]	
C=C(c1cccc(Cl)c1F)C(O)(Cn1cnnn1)C1(Cl)CC1 (centres unmarked) [Ia-en-10]	2.82^[a]	
OC(Cc1cncc(Cl)c1)(Cn1ncnn1)C1(Cl)CC1 (centres unmarked) [Ib-01]	2.13^[a]	
OC(Cc1cccc(F)c1F)(Cn1ncnn1)C1(Cl)CC1 (centres unmarked) [Ib-03]	2.82^[a]	
OC(Cc1ccccc1Cl)(Cn1ncnn1)C1(Cl)CC1 (centres unmarked) [Ib-04, 2-(1-chlorocyclopropyl)-1-(2-chlorophenyl)-3-(tetrazol-2-yl)propan-2-ol]		3.2
OC(Cc1cccc(Cl)c1F)(Cn1ncnn1)C1(Cl)CC1 (centres unmarked) [Ib-06]	3.19^[a]	
Cc1ccc(F)c(CC(O)(Cn2ncnn2)C2(Cl)CC2)c1F (centres unmarked) [Ib-09]	3.37^[a]	
OC(Cc1ccc(F)c(F)c1F)(Cn1ncnn1)C1(Cl)CC1 (centres unmarked) [Ib-10]	3.11^[a]	
OC(Cc1cc(F)cc(F)c1F)(Cn1ncnn1)C1(Cl)CC1 (centres unmarked) [Ib-11]	3.06^[a]	
OC(Cc1ccc(F)c(Cl)c1F)(Cn1ncnn1)C1(Cl)CC1 (centres unmarked) [Ib-12]	3.37^[a]	
COc1c(F)ccc(CC(O)(Cn2ncnn2)C2(Cl)CC2)c1F (centres unmarked) [Ib-14]	3.00^[a]	
COc1cc(F)c(CC(O)(Cn2ncnn2)C2(Cl)CC2)c(F)c1 (centres unmarked) [Ib-15]	3.11^[a]	

Continued, in another order:

LogP	Structure (SMILES)	chromatographic logP (method [a]: LC-UV, acidic range, 0.1% formic acid in water and acetonitrile as eluent)
2.72^[a]	OC(Cc1cccc(Cl)c1F)(Cn1cnnn1)C1(Cl)CC1 (centres unmarked) [Ia-02]	
2.46^[a]	OC(Cc1cccc(F)c1F)(Cn1cnnn1)C1(Cl)CC1 (centres unmarked) [Ia-06]	
2.75^[a]	Cc1ccccc1CC(O)(Cn1cnnn1)C1(C)CC1 (centres unmarked) [Ia-12]	
2.73^[a]	COc1ccccc1CC(O)(Cn1cnnn1)C1(Cl)CC1 (centres unmarked) [Ia-14]	
3.19^[a]	OC(Cc1cccc(Cl)c1Cl)(Cn1cnnn1)C1(Cl)CC1 (centres unmarked) [Ia-15]	
2.08^[a]	OC(Cc1ccccc1)(Cn1cnnn1)C1(F)CC1 (centres unmarked) [Ia-17]	
2.40^[a]	OC(Cc1ccccc1Cl)(Cn1cnnn1)C1(F)CC1 (centres unmarked) [Ia-19]	
2.96^[a]	CC(c1cccc(F)c1F)C(O)(Cn1cnnn1)C1(Cl)CC1 (centres unmarked) [Ia-25]	
2.11^[a]	COc1cccc(CC(O)(Cn2cnnn2)C2(F)CC2)c1 (centres unmarked) [Ia-26]	
2.73^[a]	Cc1ccc(CC(O)(Cn2cnnn2)C2(C)CC2)cc1 (centres unmarked) [Ia-30]	
2.44^[a]	Cc1ccc(CC(O)(Cn2cnnn2)C2(F)CC2)cc1 (centres unmarked) [Ia-33]	
2.52^[a]	OC(Cc1cc(F)ccc1F)(Cn1cnnn1)C1(Cl)CC1 (centres unmarked) [Ia-42]	
2.71^[a]	OC(Cc1ccc(F)c(F)c1F)(Cn1cnnn1)C1(Cl)CC1 (centres unmarked) [Ia-44]	
2.82^[a]	OC(Cc1cccc(Cl)c1)(Cn1cnnn1)C1(Cl)CC1 (centres unmarked) [Ia-47]	
2.59^[a]	COc1ccc(CC(O)(Cn2cnnn2)C2(Cl)CC2)c(F)c1F (centres unmarked) [Ia-48]	
2.62^[a]	COc1c(F)ccc(CC(O)(Cn2cnnn2)C2(Cl)CC2)c1F (centres unmarked) [Ia-50]	

LogP	Structure (SMILES)	chromatographic logP (method [a]: LC-UV, acidic range, 0.1% formic acid in water and acetonitrile as eluent)
2.66^[a]	OC(Cc1cc(F)c(F)cc1F)(Cn1cnnn1)C1(Cl)CC1 (centres unmarked) [Ia-51]	
2.90^[a]	OC(Cc1ccc(F)c(Cl)c1)(Cn1cnnn1)C1(Cl)CC1 (centres unmarked) [Ia-52]	
2.78^[a]	Cc1ccc(CC(O)(Cn2cnnn2)C2(Cl)CC2)cc1 (centres unmarked) [Ia-57]	
2.40^[a]	COc1ccc(CC(O)(Cn2cnnn2)C2(Cl)CC2)cc1 (centres unmarked) [Ia-58]	
2.37^[a]	COc1cccc(CC(O)(Cn2cnnn2)C2(C)CC2)c1 (centres unmarked) [Ia-61]	
2.92^[a]	OC(Cc1cccc(Br)c1)(Cn1cnnn1)C1(Cl)CC1 (centres unmarked) [Ia-62]	
2.73^[a]	Cc1cccc(CC(O)(Cn2cnnn2)C2(C)CC2)c1 (centres unmarked) [Ia-65]	
3.23^[a]	OC(Cc1ccc(Br)cc1F)(Cn1cnnn1)C1(Cl)CC1 (centres unmarked) [Ia-67]	
2.45^[a]	CC1(C(O)(Cc2ccccc2F)Cn2cnnn2)CC1 (centres unmarked) [Ia-68]	
3.23^[a]	COC(Cc1ccccc1Br)(Cn1cnnn1)C1(Cl)CC1 (centres unmarked) [Ia-70]	
3.04^[a]	OC(Cc1cccc(C(F)(F)F)c1F)(Cn1cnnn1)C1(Cl)CC1 (centres unmarked) [Ia-71]	
2.98^[a]	OC(Cc1c(F)cc(Cl)cc1F)(Cn1cnnn1)C1(Cl)CC1 (centres unmarked) [Ia-75]	
3.09^[a]	OC(Cc1c(F)cc(F)cc1F)(Cn1ncnn1)C1(Cl)CC1 (centres unmarked) [Ib-07]	
3.37^[a]	OC(Cc1ccc(Cl)cc1F)(Cn1ncnn1)C1(Cl)CC1 (centres unmarked) [Ib-08]	
2.94^[a]	COc1ccc(CC(O)(Cn2ncnn2)C2(Cl)CC2)c(F)c1F (centres unmarked) [Ib-13]	
